Patent US11472805B2, “Tricyclic compounds and their use as phosphodiesterase inhibitors” (Pfizer Inc., priority 2015, dated 2022)
Structures can show the parent of a compound that is named as a salt. Where two headings read alike, the source gives them in different places.

Tests used:
Type in all cases: biochemical
Human PDE4B1 = Human PDE4B1 (Homo sapiens (Human), UniProt Q07343, S133E/S654A/S659A/S661A); experiment: PDE4B1 Scintillation Proximity Assay (SPA), inhibition of enzyme activity; settings: read-out: Human PDE4B FL
Chain of Human PDE4B1 (Q07343 122-736 S133E/S654A/S659A/S661A): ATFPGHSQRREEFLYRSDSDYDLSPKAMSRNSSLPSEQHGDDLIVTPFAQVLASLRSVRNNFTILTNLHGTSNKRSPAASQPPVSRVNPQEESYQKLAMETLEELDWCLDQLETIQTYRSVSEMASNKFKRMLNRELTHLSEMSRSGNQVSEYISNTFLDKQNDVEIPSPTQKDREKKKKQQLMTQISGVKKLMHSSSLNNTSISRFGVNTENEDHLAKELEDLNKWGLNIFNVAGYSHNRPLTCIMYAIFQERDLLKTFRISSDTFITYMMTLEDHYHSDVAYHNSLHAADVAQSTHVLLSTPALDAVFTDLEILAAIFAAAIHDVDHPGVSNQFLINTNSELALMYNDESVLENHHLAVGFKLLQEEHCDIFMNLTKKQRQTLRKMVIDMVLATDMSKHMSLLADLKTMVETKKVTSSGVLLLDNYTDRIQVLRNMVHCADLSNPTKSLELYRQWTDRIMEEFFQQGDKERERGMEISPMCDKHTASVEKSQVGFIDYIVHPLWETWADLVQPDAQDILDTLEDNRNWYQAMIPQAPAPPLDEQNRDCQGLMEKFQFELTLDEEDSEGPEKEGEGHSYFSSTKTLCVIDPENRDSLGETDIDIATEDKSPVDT
Description: (§1) The PDE4A, PDE4B, PDE4C and PDE4D binding affinity for the compounds of the present invention was determined utilizing the following biological assay(s):
The recombinant Bacmid was isolated and used to transfect insect cells to generate a viral stock. To generate cell paste for purification, insect cells were infected with the virus stock and cells were harvested 72 hours after infection as described in Seeger, T. F. et al., Brain Research 985 (2003) 113-126. Insect cell paste was lysed and after centrifugation, the supernatant was chromatographed on Ni-NTA agarose (Qiagen) as described in Seeger, T. F. et al., Brain Research 985 (2003) 113-126. Ni-NTA agarose eluting fractions containing PDE4 were pooled, diluted with Q buffer A (20 mM Tris HCl pH 8, 5% glycerol, 1 mM TCEP) to reduce NaCl to ˜100 mM and loaded on a Source 15Q (GE Healthcare) column. After washing with Q buffer A/10% buffer B to baseline, PDE4D was eluted with a gradient from 10% to 60% of Buffer B (20 mM Tris HCl pH 8, 1 M NaCl, 5% glycerol, 1 mM TCEP). PDE4D fractions were analyzed by SDS-PAGE Coomassie blue staining, pooled based on purity, frozen and stored at −80° C.
(§2) The PDE4A3, PDE4B1, PDE4C1 and PDE4D3 assays use the Scintillation Proximity Assay (SPA) technology to measure the inhibition of human recombinant PDE4A1, PDE4B3, PDE4C1, and PDE4D3 enzyme activity by compounds in vitro. The PDE4A1, PDE4B3, PDE4C1, and PDE4D3 assays are run in parallel using identical parameters, except for the concentration of enzyme ([…]). The assays are performed in a 384-well format with 50 uL assay buffer (50 mM TRIS pH7.5; 1.3 mM MgCl2; 0.01% Brij) containing enough PDE4A3, PDE4B1, PDE4C1, and PDE4D to convert ˜20% of substrate (1 μM cAMP consisting of 20 nM 3H-cAMP+[…] cold cAMP) and a range of inhibitors. Reactions are incubated for 30 min at 25° C. The addition of 20 uL of 8 mg/ml yitrium silicate SPA beads (Perkin Elmer) stops the reaction. The plates are sealed (TopSeal, Perkin Elmer) and the beads are allowed to settle for 8 hrs, after which they are read on the Trilux Microbeta overnight.

human PDE4D3 = human PDE4D3 (Homo sapiens (Human), UniProt Q08499); experiment: PDE4D3 Scintillation Proximity Assay (SPA), inhibition of enzyme activity; settings: read-out: Human PDE4D FL
Chain of human PDE4D3 (Q08499 186-808): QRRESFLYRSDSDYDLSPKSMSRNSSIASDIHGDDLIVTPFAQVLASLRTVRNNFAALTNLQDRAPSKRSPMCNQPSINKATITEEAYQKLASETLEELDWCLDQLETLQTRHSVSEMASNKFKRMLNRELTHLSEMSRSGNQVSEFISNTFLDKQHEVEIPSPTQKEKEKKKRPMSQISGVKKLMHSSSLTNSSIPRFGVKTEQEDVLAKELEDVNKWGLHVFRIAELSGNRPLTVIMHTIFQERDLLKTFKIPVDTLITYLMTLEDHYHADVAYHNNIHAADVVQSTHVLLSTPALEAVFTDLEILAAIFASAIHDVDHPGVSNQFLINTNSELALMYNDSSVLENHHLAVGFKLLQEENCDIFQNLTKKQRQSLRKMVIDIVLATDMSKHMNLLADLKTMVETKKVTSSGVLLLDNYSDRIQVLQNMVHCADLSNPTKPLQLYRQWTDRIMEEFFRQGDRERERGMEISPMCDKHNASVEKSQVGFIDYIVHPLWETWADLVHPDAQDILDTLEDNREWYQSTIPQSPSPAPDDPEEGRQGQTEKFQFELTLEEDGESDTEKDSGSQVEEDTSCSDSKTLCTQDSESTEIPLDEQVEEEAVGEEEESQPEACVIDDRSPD
Description: as §1
A portion of the human PDE4D3 coding sequence (amino acids 50 to 672 from the sequence with accession number Q08499-2) was cloned into the baculovirus expression vector pFastBac (Invitrogen) engineered to include a C-terminal His6 affinity tag to aid in purification as described in Seeger, T. F. et al., Brain Research 985 (2003) 113-126. The recombinant Bacmid was isolated and used to transfect insect cells to generate a viral stock. To generate cell paste for purification, insect cells were infected and cells were harvested 72 hours after infection. Insect cell paste was lysed and after centrifugation, the supernatant was chromatographed on Ni-NTA agarose (Qiagen) as described in Seeger, T. F. et al., Brain Research 985 (2003) 113-126. Ni-NTA agarose eluting fractions containing PDE4 were pooled, diluted with Q Buffer A (50 mM Tris HCl pH 8, 4% glycerol, 100 mM NaCl, 1 mM TCEP, Protease inhibitors EDTA-free (Roche)) to reduce NaCl to ˜200 mM, and loaded on a Q Sepharose (GE Healthcare) column. After washing with Q buffer A to baseline, PDE4D was eluted with a gradient from 10% to 60% of Buffer B (50 mM Tris HCl pH 8, 1 M NaCl, 4% glycerol, 1 mM TCEP). PDE4D fractions were analyzed by SDS-PAGE Coomassie blue staining, pooled based on purity, frozen and stored at −80° C.
as §2

Human PDE4A3 = Human PDE4A3 (Homo sapiens (Human), UniProt P27815); experiment: PDE4A3 Scintillation Proximity Assay (SPA), inhibition of enzyme activity; settings: read-out: Human PDE4A FL
Chain of Human PDE4A3 (P27815 other isoform, or with tags, fused parts or gaps): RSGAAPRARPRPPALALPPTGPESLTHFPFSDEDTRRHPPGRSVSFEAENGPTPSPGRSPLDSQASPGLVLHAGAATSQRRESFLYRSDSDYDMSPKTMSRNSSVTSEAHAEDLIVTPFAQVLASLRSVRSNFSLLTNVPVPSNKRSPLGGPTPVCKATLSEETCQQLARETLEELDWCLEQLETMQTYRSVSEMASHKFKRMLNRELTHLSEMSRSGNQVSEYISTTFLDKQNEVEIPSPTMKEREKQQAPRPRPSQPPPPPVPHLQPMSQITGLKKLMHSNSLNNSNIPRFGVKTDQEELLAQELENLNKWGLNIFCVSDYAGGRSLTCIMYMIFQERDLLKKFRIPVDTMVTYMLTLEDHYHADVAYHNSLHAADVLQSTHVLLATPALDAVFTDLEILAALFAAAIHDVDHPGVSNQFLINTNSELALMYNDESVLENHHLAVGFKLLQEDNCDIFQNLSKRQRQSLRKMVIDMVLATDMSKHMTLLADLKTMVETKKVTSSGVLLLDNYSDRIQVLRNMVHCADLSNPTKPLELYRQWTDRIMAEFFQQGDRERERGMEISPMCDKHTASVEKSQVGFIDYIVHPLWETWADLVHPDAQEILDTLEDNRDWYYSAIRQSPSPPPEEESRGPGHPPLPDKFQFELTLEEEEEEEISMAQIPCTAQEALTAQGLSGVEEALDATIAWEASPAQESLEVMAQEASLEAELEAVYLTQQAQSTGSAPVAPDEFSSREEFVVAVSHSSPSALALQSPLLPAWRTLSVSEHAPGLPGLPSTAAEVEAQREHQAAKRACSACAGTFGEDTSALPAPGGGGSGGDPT
Description: as §1
(§3) The recombinant Bacmid was isolated and used to transfect insect cells to generate a viral stock. To generate cell paste for purification, insect cells were infected with the virus stock and cells were harvested 72 hours after infection. Insect cell paste was lysed and after centrifugation, the supernatant was batch bound to Ni-NTA agarose (GE Healthcare) and eluted with 250 mM imidazole. This eluate was diluted with FLAG buffer (50 mM Tris HCL pH 7.5, 100 mM NaCl, 5% Glycerol, 1 mM TCEP with protease inhibitors) and batch bound to ant-FLAG M2 agarose (Sigma) overnight at 4° C. The agarose was packed into a column, washed with buffer and eluted with buffer containing elute using 250 ug/ml Flag-peptide. Fractions were analyzed using SDS-PAGE Coomassie blue staining and pooled based on purity. Pooled fractions were chromatographed on a S200 120 ml column (GE Healthcare) in 50 mM Tris HCL pH 7.5, 150 mM NaCl, 10% Glycerol, 2 mM TCEP with protease inhibitors. PDE4A3 fractions were analyzed by SDS-PAGE Coomassie blue staining, pooled based on purity, dialyzed against 50 mM Tris HCL pH 7.5, 100 mM NaCl, 20% Glycerol, 2 mM TCEP, frozen and stored at −80° C.
as §2

Human PDE4C1 = Human PDE4C1 (Homo sapiens (Human), UniProt Q08493); experiment: PDE4C1 Scintillation Proximity Assay (SPA), inhibition of enzyme activity; settings: read-out: Human PDE4C FL
Chain of Human PDE4C1 (Q08493 2-712): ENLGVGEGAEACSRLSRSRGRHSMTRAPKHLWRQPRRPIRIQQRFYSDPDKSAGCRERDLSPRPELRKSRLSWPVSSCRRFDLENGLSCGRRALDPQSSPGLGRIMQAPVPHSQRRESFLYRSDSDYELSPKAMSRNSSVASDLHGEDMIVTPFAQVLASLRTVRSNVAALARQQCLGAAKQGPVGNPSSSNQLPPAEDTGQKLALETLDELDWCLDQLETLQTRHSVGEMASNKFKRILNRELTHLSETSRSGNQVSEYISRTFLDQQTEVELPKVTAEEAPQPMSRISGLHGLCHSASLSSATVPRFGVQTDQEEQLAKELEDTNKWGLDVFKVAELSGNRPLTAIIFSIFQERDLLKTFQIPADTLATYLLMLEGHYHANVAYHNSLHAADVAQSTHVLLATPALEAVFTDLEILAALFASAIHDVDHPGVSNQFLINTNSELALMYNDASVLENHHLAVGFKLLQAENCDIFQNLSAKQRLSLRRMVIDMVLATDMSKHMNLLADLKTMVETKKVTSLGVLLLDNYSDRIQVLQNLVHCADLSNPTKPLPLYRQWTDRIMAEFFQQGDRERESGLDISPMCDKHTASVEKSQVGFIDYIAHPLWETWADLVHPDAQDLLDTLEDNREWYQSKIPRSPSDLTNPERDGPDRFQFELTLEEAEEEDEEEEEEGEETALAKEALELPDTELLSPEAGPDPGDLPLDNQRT
Description: as §1
as §3, with “PDE4C1” for “PDE4A3”
as §2

[1] = Table 10, geometric mean of 2-9 determinations unless otherwise indicated
[2] = Table 9, geometric mean of 2-9 determinations unless otherwise indicated

SMILES | IC50 (Human PDE4B1; [1]) [nM] | IC50 (human PDE4D3; [1]) [nM] | IC50 (Human PDE4A3; [1]) [nM] | IC50 (Human PDE4B1; [2]) [nM] | IC50 (human PDE4D3; [2]) [nM] | IC50 (Human PDE4A3; [2]) [nM] | IC50 (Human PDE4C1; [2]) [nM] | IC50 (Human PDE4C1; [1]) [nM]
Cn1nc(-c2c3n(c4cccnc24)CCN(C2CC2)C3=O)nc1C(F)F [Example 90, 8-Cyclopropyl-10-(5-(difluoromethyl)-1-methyl-1H-1,2,4-triazol-3-yl)-7,8-dihydropyrido[2′,3′:4,5]pyrrolo[1,2-a]pyrazin-9(6H)-one] | > 30000 | > 30000 | > 30000 | – | – | – | – | –
O=C1c2c(-c3ccc(Cl)cc3)c3nccnc3n2CCN1C1CC1 [Example 18, 10-(4-Chlorophenyl)-8-cyclopropyl-7,8-dihydropyrrolo[1,2-a:4,5-b′]dipyrazin-9(6H)-one] | – | – | – | 10.2 | 345 | 4.12 | 24.4 | –
O=C1c2c(-c3cc(F)c(Cl)cc3F)c3c(n2CCN1C1CC1)CCCO3 [Example 77, 10-(4-Chloro-2,5-difluorophenyl)-8-cyclopropyl-3,4,7,8-tetrahydro-2H-pyrano[2′,3′:4,5]pyrrolo[1,2-a]pyrazin-9(6H)-one] | – | – | – | 0.84 | 56.2 | 1 | 5.94 | –
Cn1ncc(Cl)c1-c1c2n(c3cccnc13)CCN(C1CC1)C2=O [Example 93, 10-(4-Chloro-1-methyl-1H-pyrazol-5-yl)-8-cyclopropyl-7,8-dihydropyrido[2′,3′:4,5]pyrrolo[1,2-a]pyrazin-9(6H)-one] | > 24700 | > 30000 | 24000 | – | – | – | – | 6970
Cc1ccc(C#N)cc1-c1c2n(c3cccnc13)CCN(C1CC1)C2=O [Example 60, 3-(8-Cyclopropyl-9-oxo-6,7,8,9-tetrahydropyrido[2′,3′:4,5]pyrrolo[1,2-a]pyrazin-10-yl)-4-methylbenzonitrile] | – | – | – | 11.2 | 397 | 11.8 | 99 | –
O=C1c2c(-c3cccc(Cl)c3)c3ncccc3n2CCN1C1CC1 [Example 48, 10-(3-Chlorophenyl)-8-cyclopropyl-7,8-dihydropyrido[2′,3′:4,5]pyrrolo[1,2-a]pyrazin-9(6H)-one] | – | – | – | < 0.72 | 19.8 | 1 | 3.16 | –
N#Cc1ccc(-c2c3n(c4cccnc24)CCN(C2CC2)C3=O)cc1F [Example 4, 4-(8-Cyclopropyl-9-oxo-6,7,8,9-tetrahydropyrido[2′,3′:4,5]pyrrolo[1,2-a]pyrazin-10-yl)-2-fluorobenzonitrile] | – | – | – | < 0.81 | 36.3 | 4.66 | 17 | –
O=C1c2c(-c3cncc(Cl)c3)c3ncccc3n2CCN1C1CC1 [Example 51, 10-(5-Chloropyridin-3-yl)-8-cyclopropyl-7,8-dihydropyrido[2′,3′:4,5]pyrrolo[1,2-a]pyrazin-9(6H)-one] | – | – | – | 26.1 | 2010 | 86.7 | 694 | –
Cc1cc(-c2c3n(c4cccnc24)CCN(C2CC2)C3=O)ccc1F [Example 37, 8-Cyclopropyl-10-(4-fluoro-3-methylphenyl)-7,8-dihydropyrido[2′,3′:4,5]pyrrolo[1,2-a]pyrazin-9(6H)-one] | – | – | – | 3.76 | 98.7 | 2.52 | 3.3 | –
O=C1c2c(-c3ccc(Cl)c(F)c3)c3ncccc3n2CCN1C1CC1 [Example 32, 10-(4-Chloro-3-fluorophenyl)-8-cyclopropyl-7,8-dihydropyrido[2′,3′:4,5]pyrrolo[1,2-a]pyrazin-9(6H)-one] | – | – | – | < 0.7 | 9.07 | < 0.45 | 1.44 | –
O=C1c2c(-c3ccc(Cl)cc3)c3ncccc3n2CC2CCN12 (stereo not drawn) [Example 67, 11-(4-Chlorophenyl)-6,6a,7,8-tetrahydro-10H-azeto[1,2-a]pyrido[2′,3′:4,5]pyrrolo[1,2-d]pyrazin-10-one] | – | – | – | 4.93 | 862 | – | – | –
CCN1CCn2c(c(-c3ccc(Cl)cc3)c3ncccc32)C1=O [Example 31, 10-(4-Chlorophenyl)-8-ethyl-7,8-dihydropyrido[2′,3′:4,5]pyrrolo[1,2-a]pyrazin-9(6H)-one] | – | – | – | 2.43 | 87.9 | – | – | –
CN1CCn2c(c(-c3ccc(Cl)cc3)c3ncccc32)C1=O [Example 30, 10-(4-Chlorophenyl)-8-methyl-7,8-dihydropyrido[2′,3′:4,5]pyrrolo[1,2-a]pyrazin-9(6H)-one] | – | – | – | 27.9 | 803 | – | – | –
O=C1c2c(-c3ccc(Cl)cc3)c3ncccc3n2C[C@@H]2CCCN12 [Example 52, (6aS)-12-(4-Chlorophenyl)-6a,7,8,9-tetrahydro-6H,11H-pyrido[2′,3′:4,5]pyrrolo[1,2-a]pyrrolo[1,2-d]pyrazin-11-one] | – | – | – | 12.4 | 1110 | – | – | –
O=C1c2c(-c3ccc(Cl)cc3)c3ncccc3n2C[C@H]2CCCN12 [Example 3, (6aR)-12-(4-Chlorophenyl)-6a, 7,8,9-tetrahydro-6H,11H-pyrido[2′,3′:4,5]pyrrolo[1,2-a]pyrrolo[1,2-d]pyrazin-11-one, trifluoroacetate salt] | – | – | – | 1.38 | 150 | – | – | –
O=C1c2c(-c3ccc(F)cn3)c3ncccc3n2CCN1C1CC1 [Example 62, 8-Cyclopropyl-10-(5-fluoropyridin-2-yl)-7,8-dihydropyrido[2′,3′:4,5]pyrrolo[1,2-a]pyrazin-9(6H)-one] | – | – | – | 332 | > 30000 | – | – | –
